{"source": "patent US20240067632A1", "about": "“WEE1 Degrading Compounds and Uses Thereof” (Bristol-Myers Squibb Company, priority 2022, published 2024)", "key": {"MKN45 cells": {"system": "MKN45 cells", "experiment": "MKN45 cell proliferation assay (Cell-Titer-Glo, 120 h)", "format": "cell-based", "conditions": "for EC50: Homo sapiens, MKN-45, 120 h, Cell-Titer-Glo, read-out: MKN45 Cell Prolif. 120 hr (EC50); for MKN45 Cell Prolif. 120 hr (Ymin-Obs): minimal percent of DMSO control observed in the concentrations tested", "how_it_was_run": "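Growth inhibition was read as blank-corrected Cell-Titer-Glo luminescence expressed as percent DMSO control after 120 h at 37 C, 400 cells/well. Compounds tested in triplicate as 10-point half-log series from 1 or 10 uM, 0.1% DMSO; four-parameter fit gave EC50, and lowest observed percent control was reported as Ymin-obs.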"}, "WEE1": {"target": "T1, WEE1 (Homo sapiens, UniProt P30291+Q96SW2)", "T1 construct": "C-terminal ePL-tagged (DiscoverX, Fremont, CA) full-length WEE1 expression construct; expressed in transfected cells; host or cells: LentiX-HEK293T (Invitrogen), lentiviral transduction; co-expressing GSPT1-GN (G576N, lacking the first 158 amino acids)", "experiment": "WEE1-ePL degradation assay (LentiX-WEE1-ePL-GSPT1-ND cells, InCELL Hunter luminescence, 4 h)", "format": "cell-based", "conditions": "293T-LentiX WEE1-ePL cells; for DC50: read-out: 293T-LentiX WEE1-ePL Degradation 4 hr (EC50)", "how_it_was_run": "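Degradation EC50 was fitted by a four-parameter logistic model, with the upper limit taken from DMSO wells. Luminescence was read with InCELL Hunter reagent after 30 min at room temperature, following a 4 h, 37° C exposure of 2500 cells/well. Cells were LentiX-HEK293T carrying ePL-tagged full-length WEE1, dosed in 10 points (3-fold) from 1 or 10 uM.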"}, "[1]": {"conditions": "lower limit of the fit (Ymin=0 luciferase inhibitor, Ymax DMSO control)"}, "[2]": {"conditions": "lower limit of the fit (0 = luciferase inhibitor, Ymax = DMSO control)"}}, "note": "Where two headings read alike, the source gives them in different places."}
{"molecule": "C[C@@H]1CN(Cc2cc(F)c3nc([C@@H]4CCOC4)ccc3c2)C[C@H]1Oc1ccc2c(c1)CN([C@H]1CCC(=O)NC1=O)C2=O", "note": "[(3S)-3-(5-{[(3S,4R)-1-({8-fluoro-2-[(3S)-oxolan-3-yl]quinolin-6-yl}methyl)-4-methylpyrrolidin-3-yl]oxy}-1-oxo-2,3-dihydro-1H-isoindol-2-yl)piperidine-2,6-dione]", "values": [{"measurement": "EC50", "setting": "MKN45 cells", "value": 1.13, "unit": "nM"}, {"measurement": "MKN45 Cell Prolif. 120 hr (Ymin-Obs)", "setting": "MKN45 cells", "value": 7.979}, {"measurement": "293T-LentiX WEE1-ePL Degradation 4 hr (Ymin)", "setting": "WEE1; [1]", "value": 26.17}, {"measurement": "DC50", "setting": "WEE1", "value": 1.41, "unit": "nM"}]}
{"molecule": "CO[C@H]1CCC[C@@H](c2ccc3cc(CN4CC[C@H](Oc5ccc6c(c5)CN(C5CCC(=O)NC5=O)C6=O)C4)ccc3n2)C1", "note": "(stereo partly drawn) [3-(5-{[(3S)-1-({2-[(1R,3S)-3-methoxycyclohexyl]quinolin-6-yl}methyl)pyrrolidin-3-yl]oxy}-1-oxo-2,3-dihydro-1H-isoindol-2-yl)piperidine-2,6-dione]", "values": [{"measurement": "EC50", "setting": "MKN45 cells; growth inhibition", "value": 1.96, "unit": "nM"}, {"measurement": "MKN45 Cell Prolif. 120 hr (Ymin-Obs)", "setting": "MKN45 cells", "value": 7.623}, {"measurement": "293T-LentiX WEE1-ePL Degradation 4 hr (Ymin)", "setting": "WEE1; [2]", "value": 27.5}, {"measurement": "DC50", "setting": "WEE1", "value": 3.49, "unit": "nM"}]}
{"molecule": "C[C@@H]1CN(Cc2ccc3nc([C@H]4CCOC4)ccc3c2)C[C@H]1Oc1ccc2c(c1)CN(C1CCC(=O)NC1=O)C2=O", "note": "(stereo partly drawn) [3-(5-{[(3S,4R)-4-methyl-1-({2-[(3R)-oxolan-3-yl]quinolin-6-yl}methyl)pyrrolidin-3-yl]oxy}-1-oxo-2,3-dihydro-1H-isoindol-2-yl)piperidine-2,6-dione]", "values": [{"measurement": "EC50", "setting": "MKN45 cells", "value": 2.32, "unit": "nM"}, {"measurement": "MKN45 Cell Prolif. 120 hr (Ymin-Obs)", "setting": "MKN45 cells", "value": 10.26}, {"measurement": "293T-LentiX WEE1-ePL Degradation 4 hr (Ymin)", "setting": "WEE1; [1]", "value": 33.41}, {"measurement": "DC50", "setting": "WEE1", "value": 1.41, "unit": "nM"}]}
{"molecule": "CC1(C)CC(c2ccc3cc(CN4CC[C@H](Oc5ccc6c(c5)CN(C5CCC(=O)NC5=O)C6=O)C4)ccc3n2)CCO1", "note": "(stereo partly drawn) [3-(5-{[(3S)-1-{[2-(2,2-dimethyloxan-4-yl)quinolin-6-yl]methyl}pyrrolidin-3-yl]oxy}-1-oxo-2,3-dihydro-1H-isoindol-2-yl)piperidine-2,6-dione]", "values": [{"measurement": "EC50", "setting": "MKN45 cells; growth inhibition", "value": 2.14, "unit": "nM"}, {"measurement": "MKN45 Cell Prolif. 120 hr (Ymin-Obs)", "setting": "MKN45 cells", "value": 7.959}, {"measurement": "293T-LentiX WEE1-ePL Degradation 4 hr (Ymin)", "setting": "WEE1; [2]", "value": 29}, {"measurement": "DC50", "setting": "WEE1", "value": 2.56, "unit": "nM"}]}
{"molecule": "O=C1CCC(N2Cc3cc(O[C@H]4CCN(Cc5ccc6nc([C@H]7CCCOC7)ncc6c5)C4)ccc3C2=O)C(=O)N1", "note": "(stereo partly drawn) [3-(5-{[(3S)-1-({2-[(3R)-oxan-3-yl]quinazolin-6-yl}methyl)pyrrolidin-3-yl]oxy}-1-oxo-2,3-dihydro-1H-isoindol-2-yl)piperidine-2,6-dione]", "values": [{"measurement": "EC50", "setting": "MKN45 cells; growth inhibition", "value": 8.8, "unit": "nM"}, {"measurement": "MKN45 Cell Prolif. 120 hr (Ymin-Obs)", "setting": "MKN45 cells", "value": 6.66}, {"measurement": "293T-LentiX WEE1-ePL Degradation 4 hr (Ymin)", "setting": "WEE1; [2]", "value": 28.5}, {"measurement": "DC50", "setting": "WEE1", "value": 16, "unit": "nM"}]}
{"molecule": "O=C1CCC(N2Cc3cc(O[C@H]4CCN(Cc5cnc6cccnc6c5)C4)ccc3C2=O)C(=O)N1", "note": "(stereo partly drawn) [3-(5-{[(3S)-1-[(1,5-naphthyridin-3-yl)methyl]pyrrolidin-3-yl]oxy}-1-oxo-2,3-dihydro-1H-isoindol-2-yl)piperidine-2,6-dione]", "values": [{"measurement": "EC50", "setting": "MKN45 cells; growth inhibition", "value": 561, "unit": "nM"}, {"measurement": "MKN45 Cell Prolif. 120 hr (Ymin-Obs)", "setting": "MKN45 cells", "value": 73.34}, {"measurement": "293T-LentiX WEE1-ePL Degradation 4 hr (Ymin)", "setting": "WEE1; [2]", "value": 66}, {"measurement": "DC50", "setting": "WEE1", "value": 75.4, "unit": "nM"}]}
{"molecule": "Cc1ccnc(CN2CC[C@H](Oc3ccc4c(c3)CN(C3CCC(=O)NC3=O)C4=O)C2)c1", "note": "(stereo partly drawn) [3-(5-{[(3S)-1-[(4-methylpyridin-2-yl)methyl]pyrrolidin-3-yl]oxy}-1-oxo-2,3-dihydro-1H-isoindol-2-yl)piperidine-2,6-dione]", "values": [{"measurement": "EC50", "setting": "MKN45 cells; growth inhibition", "value": 1330, "unit": "nM"}, {"measurement": "MKN45 Cell Prolif. 120 hr (Ymin-Obs)", "setting": "MKN45 cells", "value": 42.67}, {"measurement": "293T-LentiX WEE1-ePL Degradation 4 hr (Ymin)", "setting": "WEE1; [2]", "value": 38.55}, {"measurement": "DC50", "setting": "WEE1", "value": 65.4, "unit": "nM"}]}
{"molecule": "COC(C)(C)c1ccc2cc(CN3CC[C@H](Oc4ccc5c(c4)CN(C4CCC(=O)NC4=O)C5=O)C3)ncc2c1", "note": "(stereo partly drawn) [3-(5-{[(3S)-1-{[7-(2-methoxypropan-2-yl)isoquinolin-3-yl]methyl}pyrrolidin-3-yl]oxy}-1-oxo-2,3-dihydro-1H-isoindol-2-yl)piperidine-2,6-dione]", "values": [{"measurement": "EC50", "setting": "MKN45 cells; growth inhibition", "value": 6.04, "unit": "nM"}, {"measurement": "MKN45 Cell Prolif. 120 hr (Ymin-Obs)", "setting": "MKN45 cells", "value": 11.51}, {"measurement": "293T-LentiX WEE1-ePL Degradation 4 hr (Ymin)", "setting": "WEE1; [2]", "value": 32}, {"measurement": "DC50", "setting": "WEE1", "value": 1.21, "unit": "nM"}]}
